Reference: PubChem BioAssay (NCI)
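Cultured in 96-well plates, cells were exposed to test compound for 48 hours across five concentrations. Definition used: TGI = concentration required for complete inhibition of growth.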 Where a SMILES comes first, the peptide text is derived from it. The star is where a group is joined. Boc = CC(C)(C)OC(=O)*

Tests used:
Assay in all cases: growth of human tumour cells (NCI), 48 h
OVCAR-8 ovarian = tested on: OVCAR-8 ovarian
HOP-62 NSCLC = tested on: HOP-62 NSCLC
SK-MEL-5 melanoma = tested on: SK-MEL-5 melanoma
ACHN renal = tested on: ACHN renal
UACC-257 melanoma = tested on: UACC-257 melanoma
OVCAR-5 ovarian = tested on: OVCAR-5 ovarian
HS 578T breast = tested on: HS 578T breast
NCI-H23 lung = tested on: NCI-H23 lung
786-0 renal = tested on: 786-0 renal
NCI-H522 lung = tested on: NCI-H522 lung

## C[N+]1=C2[B-](C(C)(C)C)=[N+](C(C)(C)C)[B-]2(C(C)(C)C)[N+](C)=C2[B-](C(C)(C)C)=[N+](C(C)(C)C)[B-]21C(C)(C)C (stereo not given)
OVCAR-8 ovarian
  TGI: > 100 µM
HOP-62 NSCLC
  TGI: > 100 µM
SK-MEL-5 melanoma
  TGI: > 100 µM
ACHN renal
  TGI: > 100 µM
UACC-257 melanoma
  TGI: > 100 µM
OVCAR-5 ovarian
  TGI: > 100 µM
HS 578T breast
  TGI: > 100 µM
NCI-H23 lung
  TGI: > 100 µM
786-0 renal
  TGI: > 100 µM
NCI-H522 lung
  TGI: > 100 µM

## Cc1ccc([C@@H]2[C@@H](C(=O)c3ccccn3)[C@H](c3ccc(C)cc3)C[C@](O)(c3ccccn3)[C@H]2C(=O)c2ccccn2)cc1
OVCAR-8 ovarian
  TGI: > 100 µM
HOP-62 NSCLC
  TGI: > 100 µM
SK-MEL-5 melanoma
  TGI: > 100 µM
ACHN renal
  TGI: > 40.4 µM
UACC-257 melanoma
  TGI: > 100 µM
OVCAR-5 ovarian
  TGI: > 85.8 µM
HS 578T breast
  TGI: > 100 µM
NCI-H23 lung
  TGI: > 100 µM
786-0 renal
  TGI: 9.15 µM
NCI-H522 lung
  TGI: > 100 µM

## O=c1nc(N2CCN(c3ccccc3)CC2)ccn1C1OC(CO)C(O)C1O (stereo not given)
OVCAR-8 ovarian
  TGI: > 100 µM
HOP-62 NSCLC
  TGI: > 100 µM
SK-MEL-5 melanoma
  TGI: > 100 µM
ACHN renal
  TGI: > 100 µM
UACC-257 melanoma
  TGI: > 100 µM
OVCAR-5 ovarian
  TGI: > 100 µM
HS 578T breast
  TGI: > 100 µM
NCI-H23 lung
  TGI: > 100 µM
786-0 renal
  TGI: > 100 µM
NCI-H522 lung
  TGI: > 100 µM

## O=C(O)CN(CCNC(=O)OCC1c2ccccc2-c2ccccc21)CCNC(=O)OCC1c2ccccc2-c2ccccc21
OVCAR-8 ovarian
  TGI: 37.2 µM
HOP-62 NSCLC
  TGI: 44.7 µM
SK-MEL-5 melanoma
  TGI: 36.8 µM
ACHN renal
  TGI: 35.1 µM
UACC-257 melanoma
  TGI: 68.8 µM
OVCAR-5 ovarian
  TGI: 96.3 µM
HS 578T breast
  TGI: > 100 µM
NCI-H23 lung
  TGI: 49.6 µM
786-0 renal
  TGI: 36 µM
NCI-H522 lung
  TGI: 32.3 µM

## CC(C)c1ccc2[nH]c(O)c(-c3[nH]c4ccccc4c3N=O)c2c1
OVCAR-8 ovarian
  TGI: 14.6 µM
HOP-62 NSCLC
  TGI: 25.2 µM
SK-MEL-5 melanoma
  TGI: 15.8 µM
ACHN renal
  TGI: 14.6 µM
UACC-257 melanoma
  TGI: 24.5 µM
OVCAR-5 ovarian
  TGI: 30.5 µM
HS 578T breast
  TGI: 17.7 µM
NCI-H23 lung
  TGI: 16.1 µM
786-0 renal
  TGI: 16.8 µM
NCI-H522 lung
  TGI: 14.6 µM

## COC(=O)C1(C(=O)OC)CC2=C(S(=O)(=O)c3ccccc3)C[C@H](S(=O)(=O)c3ccccc3)[C@H]2C1
OVCAR-8 ovarian
  TGI: > 100 µM
HOP-62 NSCLC
  TGI: > 100 µM
SK-MEL-5 melanoma
  TGI: > 100 µM
ACHN renal
  TGI: > 100 µM
UACC-257 melanoma
  TGI: > 100 µM
OVCAR-5 ovarian
  TGI: > 100 µM
HS 578T breast
  TGI: > 100 µM
NCI-H23 lung
  TGI: > 100 µM
786-0 renal
  TGI: > 100 µM
NCI-H522 lung
  TGI: 92.7 µM

## O=C1C(Cl)=C(N2CCN(C3=C(Cl)C(=O)c4ccccc4C3=O)CC2)C(=O)c2ccccc21
OVCAR-8 ovarian
  TGI: 3.16 µM
HOP-62 NSCLC
  TGI: 25.5 µM
SK-MEL-5 melanoma
  TGI: 3.25 µM
ACHN renal
  TGI: 3.09 µM
UACC-257 melanoma
  TGI: 2.78 µM
OVCAR-5 ovarian
  TGI: 12.7 µM
HS 578T breast
  TGI: 7.12 µM
NCI-H23 lung
  TGI: 3.11 µM
786-0 renal
  TGI: 3.26 µM
NCI-H522 lung
  TGI: 1.83 µM

## COc1cc(O)c(/C=N/N=C(\N)NO)c(OC)c1
OVCAR-8 ovarian
  TGI: > 10 µM
HOP-62 NSCLC
  TGI: > 10 µM
SK-MEL-5 melanoma
  TGI: > 10 µM
ACHN renal
  TGI: > 10 µM
UACC-257 melanoma
  TGI: > 10 µM
OVCAR-5 ovarian
  TGI: > 10 µM
HS 578T breast
  TGI: > 10 µM
NCI-H23 lung
  TGI: > 10 µM
786-0 renal
  TGI: > 10 µM
NCI-H522 lung
  TGI: > 10 µM

## COCOC1/C=C/CCCCC2=C(C)C=C(C1)O2 (stereo not given)
OVCAR-8 ovarian
  TGI: > 100 µM
HOP-62 NSCLC
  TGI: > 100 µM
SK-MEL-5 melanoma
  TGI: > 100 µM
ACHN renal
  TGI: > 100 µM
UACC-257 melanoma
  TGI: > 100 µM
OVCAR-5 ovarian
  TGI: > 100 µM
HS 578T breast
  TGI: > 100 µM
NCI-H23 lung
  TGI: > 100 µM
786-0 renal
  TGI: > 100 µM
NCI-H522 lung
  TGI: > 100 µM

## COC(=O)CNC(=O)C(Cc1ccccc1)NC(=O)C(CCSC)NC(=O)C(Cc1ccc(O)cc1)NC(=O)OC(C)(C)C (stereo not given) (Boc-YMFG-OMe; configuration not given here)
OVCAR-8 ovarian
  TGI: > 100 µM
HOP-62 NSCLC
  TGI: > 100 µM
SK-MEL-5 melanoma
  TGI: > 100 µM
ACHN renal
  TGI: > 100 µM
UACC-257 melanoma
  TGI: 38.2 µM
OVCAR-5 ovarian
  TGI: > 100 µM
HS 578T breast
  TGI: > 100 µM
NCI-H23 lung
  TGI: > 100 µM
786-0 renal
  TGI: > 100 µM
NCI-H522 lung
  TGI: 43 µM

## CCOc1cc(NC(C)=O)ccc1C(=O)NNC(=O)c1ccccc1OC(C)=O
OVCAR-8 ovarian
  TGI: > 100 µM
HOP-62 NSCLC
  TGI: > 100 µM
SK-MEL-5 melanoma
  TGI: 22.6 µM
ACHN renal
  TGI: > 100 µM
UACC-257 melanoma
  TGI: 52.5 µM
OVCAR-5 ovarian
  TGI: > 89.4 µM
HS 578T breast
  TGI: > 100 µM
NCI-H23 lung
  TGI: > 100 µM
786-0 renal
  TGI: > 90.3 µM
NCI-H522 lung
  TGI: > 100 µM

## CCCCCCCCCCCCCCCCCCNc1ccn(C2OC(COP(=O)(O)OCC3OC(n4ccc(NC(=O)CCCCCCCCCCCCCCCCC)nc4=O)C(OC(C)=O)C3OC(C)=O)C(OC(C)=O)C2OC(C)=O)c(=O)n1 (stereo not given)
OVCAR-8 ovarian
  TGI: > 100 µM
HOP-62 NSCLC
  TGI: > 100 µM
SK-MEL-5 melanoma
  TGI: > 100 µM
ACHN renal
  TGI: > 100 µM
UACC-257 melanoma
  TGI: > 100 µM
OVCAR-5 ovarian
  TGI: > 100 µM
HS 578T breast
  TGI: > 100 µM
NCI-H23 lung
  TGI: > 100 µM
786-0 renal
  TGI: > 100 µM
NCI-H522 lung
  TGI: > 100 µM

## CC1=C2C(=O)NN=C2CCN1c1ccc(Br)cc1
OVCAR-8 ovarian
  TGI: > 100 µM
HOP-62 NSCLC
  TGI: > 100 µM
SK-MEL-5 melanoma
  TGI: > 100 µM
ACHN renal
  TGI: > 100 µM
UACC-257 melanoma
  TGI: > 100 µM
OVCAR-5 ovarian
  TGI: > 100 µM
HS 578T breast
  TGI: > 100 µM
NCI-H23 lung
  TGI: > 100 µM
786-0 renal
  TGI: > 100 µM
NCI-H522 lung
  TGI: > 100 µM

## COc1ccccc1Nc1nc(N)nc(N)c1N=O
OVCAR-8 ovarian
  TGI: > 100 µM
HOP-62 NSCLC
  TGI: > 100 µM
SK-MEL-5 melanoma
  TGI: > 100 µM
ACHN renal
  TGI: > 100 µM
UACC-257 melanoma
  TGI: > 100 µM
OVCAR-5 ovarian
  TGI: > 100 µM
HS 578T breast
  TGI: > 100 µM
NCI-H23 lung
  TGI: > 100 µM
786-0 renal
  TGI: > 100 µM
NCI-H522 lung
  TGI: > 100 µM
